Active and inactive are the calls of the source. No cut-off for these calls is given here.
Tests used:
Plasmodium falciparum [1] = test: Relative activity compared to artemisinin against Plasmodium falciparum D6 (Sierra Leone); Not active; assay type: functional, organism-based
Plasmodium falciparum [2] = test: Relative activity compared to artemisinin against Plasmodium falciparum Indochina W-2; Not active; assay type: functional, organism-based
Plasmodium falciparum [3] = test: Relative activity against Plasmodium falciparum W2 Indochina compared to artemisinin; assay type: functional
Plasmodium falciparum [4] = test: Relative activity against Plasmodium falciparum D6 (Sierra Leone) compared to artemisinin; assay type: functional
Plasmodium falciparum [5] = test: Relative activity compared to artemisinin against Plasmodium falciparum Sierra Leone D6; assay type: functional
Plasmodium falciparum [6] = test: Relative activity compared to artemisinin against Plasmodium falciparum Indochina W2; assay type: functional
Plasmodium falciparum [7] = test: In vitro relative potency against Plasmodium falciparum Sierra Leone D6; assay type: functional

SMILES	Relative activity (Plasmodium falciparum [3])	Relative activity (Plasmodium falciparum [4])	other results
CC(C)CCC[C@H]1C(=O)O[C@@H]2O[C@@]3(C)CC[C@H]4[C@H](C)CC[C@@H]1[C@@]24O3	–	–	Relative activity (Plasmodium falciparum [1]): inactive; Relative activity (Plasmodium falciparum [2]): inactive
C[C@@H]1CC[C@H]2[C@@H](CCCc3ccccc3)C(=O)O[C@@H]3O[C@@]4(C)CC[C@@H]1[C@]32OO4	4.45	6.11	–
CCCCC[C@H]1C(=O)O[C@@H]2O[C@@]3(C)CC[C@H]4[C@H](C)CC[C@@H]1[C@@]24O3	–	–	Relative activity (Plasmodium falciparum [1]): inactive; Relative activity (Plasmodium falciparum [2]): inactive
C/C=C\CC1C(=O)O[C@@H]2O[C@@]3(C)CC[C@H]4[C@H](C)CC[C@@H]1[C@@]24OO3 (single isomer, unassigned)	0.07	0.09	–
CCC[C@H]1C(=O)O[C@@H]2O[C@@]3(C)CC[C@H]4[C@H](C)CC[C@@H]1[C@@]24O3	–	–	Relative activity (Plasmodium falciparum [5]): 0.06; Relative activity (Plasmodium falciparum [6]): 0.07
C[C@@H]1CC[C@H]2[C@](C)(Br)[C@@H](Nc3ccccc3)O[C@@H]3O[C@@]4(C)CC[C@@H]1[C@]32OO4	–	–	Relative activity (Plasmodium falciparum [7]): 0.16
C[C@@H]1CC[C@H]2[C@](C)(Br)[C@@H](Nc3nccs3)O[C@@H]3O[C@@]4(C)CC[C@@H]1[C@]32OO4	–	–	Relative activity (Plasmodium falciparum [7]): 0.62
CC1CCC2C(CCc3ccccc3)C(=O)OC3OC4(C)CCC1C32O4 (stereo unspecified)	–	–	Relative activity (Plasmodium falciparum [1]): inactive; Relative activity (Plasmodium falciparum [2]): inactive
CC(C)CC[C@H]1C(=O)O[C@@H]2O[C@@]3(C)CC[C@H]4[C@H](C)CC[C@@H]1[C@@]24O3	–	–	Relative activity (Plasmodium falciparum [5]): 0.13; Relative activity (Plasmodium falciparum [6]): 0.14
CC[C@H]1C(=O)O[C@@H]2O[C@@]3(C)CC[C@H]4[C@H](C)CC[C@@H]1[C@@]24OO3	12.26	6.42	–
CO[C@@H]1O[C@@]2(C)CC[C@H]3CCCC[C@]31OO2	–	–	Relative activity (Plasmodium falciparum [7]): 0.13
CC(C)CCC[C@H]1C(=O)O[C@@H]2O[C@@]3(C)CC[C@H]4[C@H](C)CC[C@@H]1[C@@]24OO3	0.74	0.31	–
C[C@@H]1CC[C@H]2[C@](C)(Br)[C@@H](Nc3cccc(F)c3)O[C@@H]3O[C@@]4(C)CC[C@@H]1[C@]32OO4	–	–	Relative activity (Plasmodium falciparum [7]): 3.5
C[C@@H]1CCC[C@@]23CO[C@@](C)(CC[C@@H]12)OO3	–	–	Relative activity (Plasmodium falciparum [7]): 0.37
CCC[C@H]1C(=O)O[C@@H]2O[C@@]3(C)CC[C@H]4[C@H](C)CC[C@@H]1[C@@]24OO3	12.25	5.5	–
CCCC[C@H]1C(=O)O[C@@H]2O[C@@]3(C)CC[C@H]4[C@H](C)CC[C@@H]1[C@@]24OO3	1.28	0.96	–
CC[C@H]1C(=O)O[C@@H]2O[C@@]3(C)CC[C@H]4[C@H](C)CC[C@@H]1[C@@]24O3	–	–	Relative activity (Plasmodium falciparum [5]): 0.001; Relative activity (Plasmodium falciparum [6]): 0.001
C[C@@H]1CC[C@H]2C(C)(C)C(=O)O[C@@H]3O[C@@]4(C)CC[C@@H]1[C@]32O4	–	–	Relative activity (Plasmodium falciparum [1]): inactive; Relative activity (Plasmodium falciparum [2]): inactive
C[C@@H]1CC[C@H]2[C@H](C)C(=O)O[C@@H]3O[C@@]4(C)CC[C@@H]1[C@]32O4	–	–	Relative activity (Plasmodium falciparum [1]): inactive; Relative activity (Plasmodium falciparum [2]): inactive
CO[C@H]1O[C@@]2(C)CC[C@H]3CCCC[C@]31OO2	–	–	Relative activity (Plasmodium falciparum [7]): 0.11
C[C@@H]1CC[C@H]2[C@@H](CCCc3ccccc3)C(=O)O[C@@H]3O[C@@]4(C)CC[C@@H]1[C@]32O4	–	–	Relative activity (Plasmodium falciparum [5]): 0.15; Relative activity (Plasmodium falciparum [6]): 0.15
CCCCCCCCCCCCCC[C@H]1C(=O)O[C@@H]2O[C@@]3(C)CC[C@H]4[C@H](C)CC[C@@H]1[C@@]24OO3	0.001	0.001	–
CC(C)[C@H]1C(=O)O[C@@H]2O[C@@]3(C)CC[C@H]4[C@H](C)CC[C@@H]1[C@@]24OO3	0.84	2.03	–
C[C@@H]1CC[C@H]2[C@@H](CC(=O)O)C(=O)O[C@@H]3O[C@@]4(C)CC[C@@H]1[C@]32OO4	0.003	0.002	–
C[C@@H]1CC[C@H]2[C@](C)(Br)[C@@H](Nc3ncccn3)O[C@@H]3O[C@@]4(C)CC[C@@H]1[C@]32OO4	–	–	Relative activity (Plasmodium falciparum [7]): 0.01
C[C@@H]1CC[C@H]2[C@@H](C)C(=O)O[C@@H]3O[C@@]4(C)CC[C@@H]1[C@]32O4 [DEOXYARTEMISININ]	–	–	Relative activity (Plasmodium falciparum [5]): 0.001; Relative activity (Plasmodium falciparum [6]): 0.001
C[C@@H]1CC[C@H]2[C@@H](C)C(=O)O[C@@H]3OC(C)(C)OO[C@@]32[C@H]1C	–	–	Relative activity (Plasmodium falciparum [7]): 0.4
CC(C)C[C@H]1C(=O)O[C@@H]2O[C@@]3(C)CC[C@H]4[C@H](C)CC[C@@H]1[C@@]24O3	–	–	Relative activity (Plasmodium falciparum [1]): inactive; Relative activity (Plasmodium falciparum [2]): inactive

SMILES	Relative activity (Plasmodium falciparum [3])	Relative activity (Plasmodium falciparum [4])	other results
C[C@@H]1CC[C@H]2C(C)(C)C(=O)O[C@@H]3O[C@@]4(C)CCC1[C@]32OO4 (stereo partly specified)	0.006	0.02	–
C[C@@H]1CC[C@H]2[C@@H](CCc3ccccc3)C(=O)O[C@@H]3O[C@@]4(C)CC[C@@H]1[C@]32OO4	1	1.69	–
CO[C@]1(C)CC[C@H]2[C@H](C)CCC[C@]2(C=O)OO1	–	–	Relative activity (Plasmodium falciparum [7]): 0.001
CC(C)[C@H]1C(=O)O[C@@H]2O[C@@]3(C)CC[C@H]4[C@H](C)CC[C@@H]1[C@@]24O3	–	–	Relative activity (Plasmodium falciparum [5]): 0.02; Relative activity (Plasmodium falciparum [6]): 0.07
CCCC[C@H]1C(=O)O[C@@H]2O[C@@]3(C)CC[C@H]4[C@H](C)CC[C@@H]1[C@@]24O3	–	–	Relative activity (Plasmodium falciparum [1]): inactive; Relative activity (Plasmodium falciparum [2]): inactive
C=CC[C@H]1C(=O)O[C@@H]2O[C@@]3(C)CC[C@H]4[C@H](C)CC[C@@H]1[C@@]24O3	–	–	Relative activity (Plasmodium falciparum [1]): inactive; Relative activity (Plasmodium falciparum [2]): inactive
CC1CCC2C(CCCCc3ccccc3)C(=O)OC3OC4(C)CCC1C32O4 (stereo unspecified)	–	–	Relative activity (Plasmodium falciparum [1]): inactive; Relative activity (Plasmodium falciparum [2]): inactive
CC1(C)OO[C@]23CCCC[C@H]2CC(=O)O[C@@H]3O1	–	–	Relative activity (Plasmodium falciparum [7]): 0.01
CCCCCC[C@H]1C(=O)O[C@@H]2O[C@@]3(C)CC[C@H]4[C@H](C)CC[C@@H]1[C@@]24OO3	5.5	4.67	–
CCCC[C@H]1C(=O)O[C@@H]2OC(C)(C)OO[C@@]23CCCC[C@@H]13	–	–	Relative activity (Plasmodium falciparum [7]): 0.1
CCCCCCCCCCCCCC[C@H]1C(=O)O[C@@H]2O[C@@]3(C)CC[C@H]4[C@H](C)CC[C@@H]1[C@@]24O3	0.05	0.05	–
C[C@H]1CO[C@@H]2O[C@@]3(C)CC[C@H]4CCC[C@@H]1[C@]42OO3	–	–	Relative activity (Plasmodium falciparum [7]): 4.02
C[C@@H]1CC[C@H]2[C@H](C)C(=O)O[C@@H]3O[C@@]4(C)CC[C@@H]1[C@]32OO4	0.67	0.14	–
CC(C)C[C@H]1C(=O)O[C@@H]2O[C@@]3(C)CC[C@H]4[C@H](C)CC[C@@H]1[C@@]24OO3	0.24	0.2	–
C[C@@H]1CC[C@H]2[C@@H](CCCCc3ccccc3)C(=O)O[C@@H]3O[C@@]4(C)CC[C@@H]1[C@]32OO4	3	1.37	–
C[C@]12CC[C@H]3CCCC[C@@]3(OO1)[C@H](OCc1ccccc1)O2	–	–	Relative activity (Plasmodium falciparum [7]): 0.03
C[C@@H]1CC[C@H]2[C@@H](C)C(=O)O[C@@H]3O[C@@]4(C)CC[C@@H]1[C@]32OO4 [ARTEMISININ]	1	1	–
CCCCCC[C@H]1C(=O)O[C@@H]2O[C@@]3(C)CC[C@H]4[C@H](C)CC[C@@H]1[C@@]24O3	–	–	Relative activity (Plasmodium falciparum [5]): 0.07; Relative activity (Plasmodium falciparum [6]): 0.02
C=CC[C@H]1C(=O)O[C@@H]2O[C@@]3(C)CC[C@H]4[C@H](C)CC[C@@H]1[C@@]24OO3	0.72	0.31	–
CC12CCC3CCCC4CC(=O)OC(O1)C34OO2 (stereo unspecified)	0.96	0.24	–
C[C@@H]1CC[C@H]2CC(=O)O[C@@H]3O[C@@]4(C)CC[C@@H]1[C@@]23O4	–	–	Relative activity (Plasmodium falciparum [1]): inactive; Relative activity (Plasmodium falciparum [2]): inactive
CC(C)CC[C@H]1C(=O)O[C@@H]2O[C@@]3(C)CC[C@H]4[C@H](C)CC[C@@H]1[C@@]24OO3	0.98	1.57	–
C[C@@H]1CC[C@H]2[C@](C)(Br)[C@@H](Nc3ccccn3)O[C@@H]3O[C@@]4(C)CC[C@@H]1[C@]32OO4	–	–	Relative activity (Plasmodium falciparum [7]): 0.02
C/C=C/CC1C(=O)O[C@@H]2O[C@@]3(C)CC[C@H]4[C@H](C)CC[C@@H]1[C@@]24OO3 (single isomer, unassigned)	0.22	0.38	–
O=C1C=C2CCCC3CC4OO[C@@]23[C@H](O1)O4 (single isomer, unassigned)	0.02	0.02	–
CCCCC[C@H]1C(=O)O[C@@H]2O[C@@]3(C)CC[C@H]4[C@H](C)CC[C@@H]1[C@@]24OO3	8.67	3.67	–
C[C@@H]1CC[C@H]2CC(=O)O[C@@H]3O[C@@]4(C)CC[C@@H]1[C@@]23OO4	6.5	1.8	–

Source: ChEMBL document CHEMBL1126576, “Structure-activity relationships of the antimalarial agent artemisinin. 1. Synthesis and comparative molecular field analysis of C-9 analogs of artemisinin and 10-deoxoartemisinin” (1993)
